Assay results taken from patent US20110098257A1, “DERIVATIVES OF 4- OR 5-AMINOSALICYLIC ACID” (ANTIBE THERAPEUTICS INC., priority 2005, published 2011).

Key:
[1] = system: leukocyte adherence in mesenteric post-capillary venules; experiment: Leukocyte adherence to the vascular endothelium in vivo (intravital microscopy, aspirin-induced); design: species or system Rats
Procedure: Leukocyte adherence was studied using intravital microscopy, as described in detail previously (Wallace et al., (1993) Am. J. Physiol. 265: 993-998, incorporated hereto by reference). Rats were anesthetized with pentobarbital sodium (60 mg/kg i.p.) and cautery incisions were made along the abdominal region. A tracheotomy was performed to facilitate breathing. The rats were placed in a supine position, and a segment of the mesentery was exteriorized through the abdominal incision. The mesentery was carefully placed over an optically clear viewing pedestal that allowed for trans-illumination of a 2-cm^2 segment of tissue. All exposed tissue was covered with saline-soaked gauze to minimize dehydration. The temperature of the pedestal was kept at 37° C. and the mesentery was superfused with warmed bicarbonate-buffered saline (pH 7.4). An intravital microscope (Nikon L25/0.35) and a ×10 eyepiece were used to observe the mesenteric microcirculation. Post-capillary venules with diameters ranging from 20 to 40 μm were selected for the study. A video camera mounted on the microscope (Panasonic™ digital 5000) projected the image onto a monitor, and the images were recorded for playback analysis using a videocassette recorder. Images of the mesenteric microcirculation were recorded 5 minutes prior to aspirin administration (baseline), at the time of aspirin administration (time 0-5) and every 15 minutes for 60 minutes. Leukocyte adherence was blindly quantified from videotaped images of the vessels made over 5-min periods as the number of leukocytes that remained stationary along the vessel wall for 30 s or more (expressed per 100 μm venule length). Groups of rats (at least 5 in each) were pretreated with Compound XXXV (130 mg/kg), Compound XXVII (100 mg/kg), mesalamine (50 mg/kg), or vehicle 60 min prior to aspirin (or vehicle) administration. These drugs were given intragastrically. In some experiments, rats were treated with glibenclamide (10 mg/kg i.p.) or vehicle 30 min prior to administration of these compounds.

[2] = system: visceral pain in response to colorectal distension; experiment: Rat model of visceral pain perception (colorectal distension, AWR score); type: in vivo, Rats (male, Wistar)
Procedure: A rat model of visceral pain perception, a pre-clinical model of irritable bowel syndrome, was used in the following example. Rats (male, Wistar, 200-250 g, obtained from Charles River, Monza, Italy), were housed in plastic cages and maintained under controlled conditions with 12-hours light/dark cycle with lights on at 7.00 AM. Tap water and standard laboratory chow were freely available. Before experiments, rats were individually trained by spending 2-3 hours per day in a plexiglass cage for 2-3 days. It allowed them to adjust to a movement-restriction environment. Food was withheld for 12 hours before colorectal distension (CRD) recording were performed. Experiments were performed in awake rats and were conducted in a blind manner in that the observer was not aware of the identity of drug administered to each animal.
In the testing day, rats were sedated with ether inhalation and a 2 cm long latex balloon was inserted intrarectally 2 cm from the anal verge and fixed at the base of the tail. The balloon was connected via a double-barreled cannula to a pressure transducer to continuously monitoring the rectal pressure by a computer (PowerLab PC, A.D. Instruments, Milford, Mass., USA) and to a syringe for inflation/deflation of the balloon. The rats were then housed in a small cage (20×8×8 cm) on an elevated Plexiglas™ platform and allowed to wake up and adapt for 1 hour. After recovery from sedation, animals underwent the CRD procedure and behavioral responses were tested. The night before the experiments, the balloons were inflated and left overnight so the latex stretched and the balloons became compliant.
CRD of 20 seconds, performed every 5 minutes, was applied in increment of 0.4 ml starting from 0.4 ml up to 1.6 ml water. To achieve an accurate measurement of the colonic parameters and perception, the distensions were repeated twice for each intensity and data for each animal were averaged for analysis. Each animal underwent a double set of CRD. Twenty minutes after the first sequence of CRD (0.4 mL-1.6 ml water), drugs were administered intraperitoneally (i.p.) and a second set of CRD was performed. Behavioral responses during the first and the second set of CRD were assessed and compared.
Behavioral response to CRD was assessed by measuring the abdominal withdrawal reflex (AWR) using a semiquantitative score (1).
The effects of mesalamine and Compound XXXV on colonic compliance and sensitivity were determined using a total of 8 fasting rats. To investigate whether the administration of mesalamine and Compound XXXV could revert pain induced by CRD, after the first sequence of CRD, […], after which a second set of CRD was repeated.
To determine the effect of mesalamine or Compound XXXV on colonic smooth muscle, the compliance of the colo-rectum during CRD was obtained from intracolo-rectal volume and pressure and expressed as mL/mmHg.
All data are presented as the mean±SEM, with sample sizes of 4 rats/group; statistical comparison of paired data was performed by the Wilcoxon signed rank test. An associated probability (p value) of less that 5% was considered significant.
A rat model of visceral pain perception as described above was used to compare pain perception scores for both Compound XXXV and Compound XXVII with or without glibenclamide, an inhibitor of ATP-sensitive K^+ (KATP) channels.

iNOS mRNA = experiment: Colonic mRNA expression by RT-PCR in TNBS-induced colitis; type: in vivo, mice; details: dose equimolar to mesalamine 50 mg/kg; FIG. 14
Procedure: (§1) The same model was used as described above. In this example, the effects of mesalamine (50 mg/kg) were compared to those of equimolar doses of Compound XXXV. In addition to measuring the severity of colitis by measuring disease activity score and MPO activity, tissues were processed for measurement of a number of genes for inflammatory cytokines and other mediators.
(§2) In particular, mRNA expression in mice of tumour necrosis factor-alpha (TNF-α), interferon gamma (IFN-[…]γ), colonic interleukin (IL)-1, IL-2, IL-10, IL-12 p40, RANTES, cyclooxygenase (COX)-1, COX-2, constitutive endothelial nitric oxide synthase (eNOS), and inducible NOS (iNOS) was measured as described in Wallace et al. (1999) Gastroenterology 117: 557-566, incorporated herein by reference.
(§3) Briefly, reverse transcription-polymerase chain reaction (RT-PCR) was used to detect and quantify mRNA of the particular cytokine/chemokine/enzyme. Glyceraldehyde-3-phosphate dehydrogenase (GAPDH) was used as the “housekeeping gene” for mRNA expression (i.e., as an internal control). For each sample, the ratio of the amplification of the target gene to the amplification of GAPDH (expression of each is measured by performing densitometry on gels) was obtained. Comparisons were then made between the relative amplification (expression) of the target gene in tissues for the treatment groups in comparison to the expression in tissues from healthy controls. Thus, the data shown in FIGS. 7-14 represent the relative expression of the target gene (normalized to GAPDH expression) as a ratio to the expression in healthy controls.

COX-2 mRNA = experiment: as above; type: in vivo, mice; details: dose equimolar to mesalamine 50 mg/kg; FIG. 13
Procedure: as §1, §2, §3

Nc1ccc(O)c(C(=O)Oc2ccc(-c3cc(=S)ss3)cc2)c1 [Compound XXXV, 5-Amino-2-hydroxy-benzoic acid 4-(5-thioxo-5H-[1,2]dithiol-3-yl)-phenyl ester]
aspirin-induced leukocyte adherence with glibenclamide pretreatment ([1]; glibenclamide 10 mg/kg i.p. 30 min prior to the compound, compound plus aspirin, FIG. 19): glibenclamide reversed the inhibitory effect | aspirin-induced leukocyte adherence, final time period ([1]; minutes 60-65, Compound XXXV 130 mg/kg, Compound XXVII 100 mg/kg, FIG. 20): suppress aspirin-induced leukocyte adherence | aspirin-induced leukocyte adherence, final time period, with glibenclamide pretreatment ([1]; minutes 60-65, glibenclamide 10 mg/kg i.p., FIG. 20): glibenclamide pretreatment to reverse this inhibitor effect | aspirin-induced increase in leukocyte adherence ([1]; pretreatment: Compound XXXV 130 mg/kg or mesalamine 50 mg/kg intragastrically 60 min prior to aspirin, glibenclamide 10 mg/kg i.p., FIG. 19): prevented the aspirin-induced increase in leukocyte adherence | intrarectal pressure ([2]; 100 mg/kg i.p., FIG. 16(b)): successfully reduced intrarectal pressure | perception score (visceral pain in response to colorectal distension) ([2]; 100 mg/kg i.p., second set of CRD vs first, FIG. 15): more effective than mesalamine (and vehicle) in reducing visceral pain | pain perception score after glibenclamide pretreatment ([2]; 0.8 mL colorectal distention, 100 mg/kg, glibenclamide 10 mg/kg i.p. 30 min before, FIG. 17): reversed by pretreatment with glibenclamide | pain perception score ([2]; 0.8 mL colorectal distention, 100 mg/kg, vs vehicle-treated group, FIG. 17): significantly reduced the pain perception | pain perception ([2]; equimolar doses: mesalamine 50, Compound XXXV 130, ADT-OH 80, Compound XXVII 100, 4-HTB 50 mg/kg, vs vehicle-treated group): significantly reduced pain perception | iNOS mRNA expression (iNOS mRNA): suppressed | COX-2 mRNA expression (COX-2 mRNA): suppressed
